Results published in US6713517B1, “Use of aryl N-substituted carboxamides directly and as radio-and chemosensitizers for killing tumor and cancer cells and novel compounds for such use” (OXiGENE, Inc., priority 1996, dated 2004).
“Also recorded” adds a separate entry of the source.

Legend:
[1] = system: human lymphocytes (purified mononuclear leukocytes); format: cell-based; conditions: for radiosensitization of cytotoxicity by apoptosis: 1 Gy radiation plus drug (100 μM MCA or 1000 μM others), FIG. 6B; for induction of / effect on apoptotic cytotoxicity: drug alone (FIG. 6A) or with 1 Gy radiation (FIG. 6B)
Method: Evaluation of radiosensitization by apoptotic cytotoxicity. […] The cells were first exposed to the drugs for 30 minutes at 37° C. before being given 1 Gy irradiation (^137cesium source, Scanditronix, 1.56 Gy/min). The apoptotic and necrotic cells were analyzed and scored by phase contrast morphological criteria. Apoptotic cells have condensed chromatin and are trypan blue negative whereas necrotic cells stain blue with trypan blue.

[2] = Solubility in water of the hydrochloride salt; format: physicochemical; conditions: amorphous hydrochloride salt
Method: Preparation of the hydrochloride salt of N-(2-diethylamino-ethyl)nicotinamide. The free base [compound (3)] was dissolved in n-propanol+n-butanol+0.1 M HClaq (2:1:1, v/v/v). An aliquate of 2 M aqueous […] was added to adjust the pH to 2. The solution was concentrated and the resulting amorphous material was dried under vacuum overnight.

| Structure (SMILES) | radiosensitization of cytotoxicity by apoptosis [1] | induction of / effect on apoptotic cytotoxicity [1] | solubility in water [2] |
| --- | --- | --- | --- |
| NC(=O)c1cccnc1 [nicotinamide] | not and does not sensitize cytotoxicity by apoptosis | not able to affect cytotoxicity by apoptosis | – |
| CCN(CC)CCNC(=O)c1cccnc1.Cl [N-(2-diethylaminoethyl) nicotinamide HCl] | – | – | readily soluble in water |
| CCN(CC)CCNC(=O)c1cc(Cl)c(N)cc1OC [metoclopramide, 4-amino-5-chloro-N-(2-diethylamino-ethyl)-2-methoxybenzamide] | having the properties to sensitize apoptotic cell killing by radiation; also recorded: effective | capable of inducing apoptotic cytotoxicity | – |
